This passage reports IC50 results from US20240228482A1, “COMPOUNDS, COMPOSITIONS AND METHODS OF TREATING CANCER” (HOTSPOT THERAPEUTICS, INC., priority 2021, published 2024).

In general, IC50 refers to the concentration that inhibits the measured activity by half.

This experiment deals with T1, CBL-B (Homo sapiens, UniProt Q13191).
T1 construct: GST
T1 sequence (Q13191 whole entry): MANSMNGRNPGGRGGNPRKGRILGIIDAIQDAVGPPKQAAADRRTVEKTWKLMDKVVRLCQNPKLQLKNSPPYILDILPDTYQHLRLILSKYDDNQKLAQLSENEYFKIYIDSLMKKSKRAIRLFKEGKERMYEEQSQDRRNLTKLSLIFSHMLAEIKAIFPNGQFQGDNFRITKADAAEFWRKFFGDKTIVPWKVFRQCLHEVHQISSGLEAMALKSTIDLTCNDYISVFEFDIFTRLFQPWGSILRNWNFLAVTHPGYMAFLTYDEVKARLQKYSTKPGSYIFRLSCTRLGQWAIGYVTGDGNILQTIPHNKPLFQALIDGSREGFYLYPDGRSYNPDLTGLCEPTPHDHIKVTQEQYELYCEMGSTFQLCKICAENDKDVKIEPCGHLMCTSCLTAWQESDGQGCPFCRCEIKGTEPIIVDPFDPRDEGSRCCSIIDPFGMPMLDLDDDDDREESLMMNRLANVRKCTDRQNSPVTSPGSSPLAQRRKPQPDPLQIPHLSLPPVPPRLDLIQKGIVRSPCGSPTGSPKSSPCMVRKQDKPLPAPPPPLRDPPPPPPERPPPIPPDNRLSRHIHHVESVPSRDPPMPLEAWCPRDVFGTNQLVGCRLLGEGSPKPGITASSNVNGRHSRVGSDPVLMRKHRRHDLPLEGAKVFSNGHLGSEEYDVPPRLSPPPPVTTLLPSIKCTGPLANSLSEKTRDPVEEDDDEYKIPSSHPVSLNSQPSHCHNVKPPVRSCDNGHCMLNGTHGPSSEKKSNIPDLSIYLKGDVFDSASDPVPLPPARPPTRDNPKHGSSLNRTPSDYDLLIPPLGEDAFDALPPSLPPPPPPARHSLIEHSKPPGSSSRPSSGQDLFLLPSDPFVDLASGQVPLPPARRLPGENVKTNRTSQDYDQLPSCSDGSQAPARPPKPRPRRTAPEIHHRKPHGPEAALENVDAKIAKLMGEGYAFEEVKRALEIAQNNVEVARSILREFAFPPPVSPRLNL
As to the kind of experiment: CBL-B TR-FRET IC50 screening (E1/E2 ubiquitination, Biotin-Ubiquitin, Anti GST-Tb donor / Streptavidin-d2 acceptor). It counts as biochemical. To be noted: CBL-B 10 nM final; 11-point titration from 100 uM; binned A-F; read-out: CBL-B TR-FRET activity IC50. (In general: In TR-FRET formats the signal depends on donor and acceptor labels being close together.)
In the case of `COc1cc(-n2cc3c(C(F)(F)F)cc(CN4CC5(CC5)C4)cn3c2=O)cc(C2(Cc3nncn3C)COC2)c1` [Compound 110], the IC50 was < 100 nM. Turning to `Cn1cnnc1C1(c2cccc(-n3cc4c(C(F)(F)F)cc(CN5CCC(C)(F)CC5)cn4c3=O)c2)CC2(CC2)C1` [Compound 111], the IC50 was < 100 nM. On to `Cn1cnnc1C1(c2cccc(-n3cc4c(C(F)(F)F)cc(CN5CCC(F)CC5)cn4c3=O)c2)CC2(CC2)C1` [Compound 112], for which the IC50 was < 100 nM. Regarding `Cn1cnnc1C1(c2cccc(-n3cc4c(C(F)(F)F)cc(C#N)cn4c3=O)c2)CC2(CC2)C1` [Compound 113], the half-inhibitory concentration (IC50) was in the range of 301 to 1000 nM. On to `Cn1cnnc1C1(c2cccc(-n3cc4c(C(F)(F)F)cc(CN5CC6(CC6)C5)cn4c3=O)c2)CC2(CC2)C1` [Compound 114], for which the IC50 is < 100 nM. Under `Cn1cnnc1C1(c2cccc(-n3cc4c(C(F)(F)F)cc(CN5CCC6(CC6)C5)cn4c3=O)c2)CC2(CC2)C1` [Compound 115] stands < 100 nM. Under `C[C@@H]1CN(Cc2cc(C(F)(F)F)c3cn(-c4cccc(C5(c6nncn6C)CC6(CC6)C5)c4)c(=O)n3c2)CCO1` [Compound 116] stands < 100 nM. To `Cn1cnnc1C1(c2cccc(-n3cc4c(C(F)(F)F)cc(CN5CC[C@H](F)C5)cn4c3=O)c2)CC2(CC2)C1` [Compound 117] belongs < 100 nM. With `[2H]C([2H])([2H])n1cnnc1C1(c2cccc(-n3cc4c(C(F)(F)F)cc(CN5CCO[C@H](C)C5)cn4c3=O)c2)CC2(CC2)C1` [Compound 118], the IC50 is < 100 nM. Under `COc1cc(-n2cc3c(C(F)(F)F)cc(CN4CCC(C)(F)CC4)cn3c2=O)cc(C2(Cc3nncn3C)COC2)c1` [Compound 121] stands < 100 nM; under `CO[C@H]1CCCN(Cc2cc(C(F)(F)F)c3cn(-c4cccc(C5(Cc6nncn6C)COC5)c4)c(=O)n3c2)C1` [Compound 123], < 100 nM. For the molecule `CO[C@@H]1CCCN(Cc2cc(C(F)(F)F)c3cn(-c4cccc(C5(Cc6nncn6C)COC5)c4)c(=O)n3c2)C1` [Compound 124], the IC50 is < 100 nM. With `Cn1cnnc1CC1(c2cccc(-n3cc4c(C(F)(F)F)cc(CN5CCC[C@H](O)C5)cn4c3=O)c2)COC1` [Compound 125], the IC50 is < 100 nM. `Cn1cnnc1CC1(c2cccc(-n3cc4c(C(F)(F)F)cc(CN5CCC[C@@H](O)C5)cn4c3=O)c2)COC1` [Compound 126]: the IC50 is < 100 nM. As to `Cn1cnnc1C(c1cccc(-n2cc3c(C(F)(F)F)cc(Br)cn3c2=O)c1)C1COC1` (centres unmarked) [Compound 127], the IC50 is 301 to 1000 nM. In the case of `Cn1cnnc1CC1(c2cccc(-n3cc4c(C(F)(F)F)cc(CN5CC6(COC6)C5)cn4c3=O)c2)COC1` [Compound 128], the IC50 was < 100 nM. `Cn1cnnc1CC1(c2cccc(-n3cc4c(C(F)(F)F)cc(CN5CC[C@H](O)C5)cn4c3=O)c2)COC1` [Compound 129]: the half-inhibitory concentration (IC50) fell in the range of 100 to 300 nM.

Take `Cn1cnnc1CC1(c2cccc(-n3cc4c(C(F)(F)F)cc(CN5CC[C@@H](O)C5)cn4c3=O)c2)COC1` [Compound 130]: the IC50 lay within 100 to 300 nM. On to `Cn1cnnc1CC1(c2cccc(-n3cc4c(C(F)(F)F)cc(CN5CC6(CCO6)C5)cn4c3=O)c2)COC1` [Compound 131], for which the IC50 was < 100 nM. Regarding `CN(Cc1nncn1C)c1cccc(-n2cc3c(C(F)(F)F)cc(Br)cn3c2=O)c1` [Compound 132], the half-maximal inhibitory concentration (IC50) is > 10000 nM. Under `Cn1cnnc1CC1(c2cccc(-n3cc4c(C(F)(F)F)cccn4c3=O)c2)CN(C(=O)OC(C)(C)C)C1` [Compound 133] stands > 10000 nM.

With `CC(=O)NCc1cc(C(F)(F)F)c2cn(-c3cccc(C4(Cc5nncn5C)COC4)c3)c(=O)n2c1` [Compound 139], the IC50 was 100 to 300 nM. For `C[C@H]1CCCN(Cc2cc(C(F)(F)F)c3cn(-c4cccc([C@H](c5nncn5C)C5COC5)c4)c(=O)n3c2)C1` [Compound 140], the IC50 is < 100 nM.

In the case of `Cn1cnnc1C(c1cccc(-n2cc3c(C(F)(F)F)cccn3c2=O)c1)C1COC1` (centres unmarked) [Compound 141], the IC50 lay in the range of 1000 to 3000 nM. Under `Cn1cnnc1CC(c1cccc(-n2cc3c(C(F)(F)F)cccn3c2=O)c1)n1cccn1` (centres unmarked) [Compound 142] stands > 10000 nM; under `CC(=O)N1CC(Cc2nncn2C)(c2cccc(-n3cc4c(C(F)(F)F)cccn4c3=O)c2)C1` [Compound 143], > 10000 nM. On to `Cn1cnnc1CC1(c2cccc(-n3cc4c(C(F)(F)F)cccn4c3=O)c2)CNC1` [Compound 144], for which the IC50 is > 10000 nM. On to `[2H]C([2H])([2H])n1cnnc1CC1(c2cccc(-n3cc4c(C(F)(F)F)cc(Br)cn4c3=O)c2)COC1` [Compound 145], for which the IC50 fell in the range of 100 to 300 nM. Regarding `Cn1cnnc1CC1(n2cc(-n3cc4c(C(F)(F)F)cccn4c3=O)cn2)COC1` [Compound 146], the half-inhibitory concentration (IC50) is > 10000 nM. Consider `O=c1n(-c2cccc(C3(Cc4nnco4)COC3)c2)cc2c(C(F)(F)F)cccn12` [Compound 147], for which the IC50 was > 10000 nM. To `Cn1cnnc1CC(c1ccccc1)c1cccc(-n2cc3c(C(F)(F)F)cccn3c2=O)c1` (centres unmarked) [Compound 148] belongs > 10000 nM.

On to `Cn1cnnc1CSc1cccc(-n2cc3c(C(F)(F)F)cccn3c2=O)c1` [Compound 149], for which the IC50 was > 10000 nM. For `Cn1cnnc1CC1(c2cccc(-n3cc4c(C(F)(F)F)cc(CN5CCOC(C)(C)C5)cn4c3=O)c2)COC1` [Compound 153], the half-maximal inhibitory concentration (IC50) is < 100 nM.

For the molecule `C[C@H]1CCCN(Cc2cc(C(F)(F)F)c3cn(-c4cccc(N(C)Cc5nncn5C)c4)c(=O)n3c2)C1` [Compound 155], the IC50 was 3000 to 10000 nM. Regarding `Cn1cnnc1[C@H](c1cccc(-n2cc3c(C(F)(F)F)cc(CN4CC[C@H](F)C4)cn3c2=O)c1)C1CCC1` [Compound 158], the IC50 lay within 3000 to 10000 nM. As to `Cn1cnnc1[C@H](c1cccc(-n2cc3c(C(F)(F)F)cc(CN4CCC(C)(F)CC4)cn3c2=O)c1)C1CCC1` [Compound 160], the half-maximal inhibitory concentration (IC50) was 1000 to 3000 nM.

For the molecule `Cn1cnnc1CC1(c2cccc(-n3cc4c(C(F)(F)F)cc(CN5CCCC[C@H](O)C5)cn4c3=O)c2)COC1` [Compound 166], the 50% inhibitory concentration (IC50) is < 100 nM. To `Cn1cnnc1CC1(c2cccc(-n3cc4c(C(F)(F)F)cc(CN5CCCC[C@@H](O)C5)cn4c3=O)c2)COC1` [Compound 167] belongs < 100 nM; to `Cc1conc1CC1(c2cccc(-n3cc4c(C(F)(F)F)cc(Br)cn4c3=O)c2)COC1` [Compound 168], 100 to 300 nM.

Regarding `CNS(=O)(=O)c1cc(C(F)(F)F)c2cn(-c3cccc(C4(Cc5nncn5C)COC4)c3)c(=O)n2c1` [Compound 175], the concentration for half-maximal inhibition (IC50) was in the range of 1000 to 3000 nM. `Cn1cnnc1CC1(c2cccc(-n3cc4c(C(F)(F)F)cc(C5CCN(CC(F)(F)F)CC5)cn4c3=O)c2)COC1` [Compound 178]: the 50% inhibitory concentration (IC50) was 301 to 1000 nM. With `Cn1cnnc1CC1(c2cccc(-n3cc4c(C(F)(F)F)cc(C5(O)CCNCC5)cn4c3=O)c2)COC1` [Compound 179], the IC50 lay in the range of 100 to 300 nM. Take `Cn1cnnc1CC1(c2cc(Br)cc(-n3cc4c(C(F)(F)F)cccn4c3=O)c2)COC1` [Compound 180]: the 50% inhibitory concentration (IC50) was in the range of 3000 to 10000 nM.

With `Cn1cnnc1COc1cccc(-n2cc3c(C(F)(F)F)cc(Br)cn3c2=O)c1` [Compound 181], the IC50 was > 10000 nM. In the case of `CN1CCC(O)(c2cc(C(F)(F)F)c3cn(-c4cccc(C5(Cc6nncn6C)COC5)c4)c(=O)n3c2)CC1` [Compound 182], the half-inhibitory concentration (IC50) lay in the range of 301 to 1000 nM. On to `C[C@H]1CCCN(Cc2cc(C(F)(F)F)c3cn(-c4cc(C#N)cc(C5(Cc6nncn6C)COC5)c4)c(=O)n3c2)C1` [Compound 183], for which the IC50 is < 100 nM.

On to `CC1CC(c2cccc(-n3cc4c(C(F)(F)F)cc(C#N)cn4c3=O)c2)(c2nncn2C)C1` (centres unmarked) [Compound 184], for which the concentration for half-maximal inhibition (IC50) was < 100 nM. In the case of `Cc1conc1CC1(c2cccc(-n3cc4c(C(F)(F)F)cc(CN5CCC[C@H](C)C5)cn4c3=O)c2)COC1` [Compound 185], the IC50 is 100 to 300 nM. For the molecule `CN1CC(Cc2nncn2C)(c2cccc(-n3cc4c(C(F)(F)F)cccn4c3=O)c2)C1` [Compound 188], the half-maximal inhibitory concentration (IC50) was > 10000 nM. Turning to `Cc1cn(C)nc1CC1(c2cccc(-n3cc4c(C(F)(F)F)cc(CN5CCC[C@H](C)C5)cn4c3=O)c2)COC1` [Compound 197], the IC50 was 3000 to 10000 nM.

For the molecule `[2H]C([2H])([2H])n1cnnc1CC1(c2cccc(-n3cc4c(C(F)(F)F)cc(CN5CCC[C@H](C)C5)cn4c3=O)c2)COC1` [Compound 198], the half-inhibitory concentration (IC50) is < 100 nM. With `[2H]C([2H])([2H])n1cnnc1CC1(c2cccc(-n3cc4c(C(F)(F)F)cc(CN5CCO[C@H](C)C5)cn4c3=O)c2)COC1` [Compound 199], the IC50 was < 100 nM. Consider `C[C@H]1CCCN(Cc2cc(C(F)(F)F)c3cn(-c4cccc(OCc5nncn5C)c4)c(=O)n3c2)C1` [Compound 200], for which the IC50 was > 10000 nM.

As for `C[C@@H]1CN(Cc2cc(C(F)(F)F)c3cn(-c4cccc(C5(Cc6nncn6C)COC5)c4)c(=O)n3c2)C[C@@H](C)O1` [Compound 201], the IC50 was < 100 nM. As for `Cn1cnnc1CC1(c2cccc(-n3cc4c(C(F)(F)F)cc(CN5CCCC(O)C5)cn4c3=O)c2)COC1` (centres unmarked) [Compound 206], the 50% inhibitory concentration (IC50) was in the range of 301 to 1000 nM. Regarding `Cc1c[nH]nc1CC1(c2cccc(-n3cc4c(C(F)(F)F)cc(CN5CCC[C@H](C)C5)cn4c3=O)c2)COC1` [Compound 207], the IC50 is < 100 nM. With `CC(=O)N(c1cccc(-n2cc3c(C(F)(F)F)cccn3c2=O)c1)c1nncn1C` [Compound 208], the IC50 was > 10000 nM.

Regarding `[2H]c1nnc(CC2(c3cccc(-n4cc5c(C(F)(F)F)cc(CN6CCC[C@H](C)C6)cn5c4=O)c3)COC2)n1C` [Compound 209], the IC50 was < 100 nM.

Take `O=c1n(-c2cccc(C3(Cc4nnc5n4CCC5)COC3)c2)cc2c(C(F)(F)F)cccn12` [Compound 210]: the IC50 was > 10000 nM. Under `Cn1cnnc1N(c1cccc(-n2cc3c(C(F)(F)F)cccn3c2=O)c1)C1COC1` [Compound 211] stands 1000 to 3000 nM; under `Cn1cnnc1[C@]1(c2cccc(-n3cc4c(C(F)(F)F)cc(C#N)cn4c3=O)c2)C[C@H](C)C1` [Compound 212], 100 to 300 nM; under `Cn1cnnc1[C@]1(c2cccc(-n3cc4c(C(F)(F)F)cc(CN5CC[C@H](F)C5)cn4c3=O)c2)C[C@@H](C)C1` [Compound 216], < 100 nM.
